Laboratory results: patent publication US11396505B2, “Inhibitors of CaMKK2 and uses of same” (New York University, priority 2019, dated 2022)

Experiments:
CaMKK1 = CaMKK1 (Homo sapiens, UniProt Q8N5S9); experiment: CaMKK1/2 biochemical assay, 32P radiometric kinase assay (CaMKK1)
Protocol: (§1) The following is an example of a CaMKK1/2-biochemical assay. Compounds were tested for CaMKK1/2 inhibition using a ^32P radiometric kinase assay as follows: A freshly prepared kinase reaction buffer (20 mM Hepes (pH 7.5), 10 mM MgCl2, 1 mM EGTA, 0.02% Brij35, 0.02 mg/ml BSA, 0.1 mM Na3VO4, 2 mM DTT, 1% DMSO) was treated with Myelin Basic Protein (final concentration=20 μM), CaCl2) (final concentration=1.5 mM), Calmodulin (final concentration=0.96 μM) and either CaMKK2 (final reaction concentration=120 nM) or CaMKK1 (final reaction concentration=150 nM) and gently mixed. Compounds were added as aliquots from 10 mM DMSO stock solutions such that the final compound concentration in the assay was either 10 μM, 0.5 μM or 0.2 μM. This mixture was allowed to incubate for 20 minutes at room temperature. ^32P-ATP (specific activity 10 μCi/μL) was added and the mixture was allowed to incubate for 2 hours at room temperature. The reaction mixture was spotted onto P81 ion exchange paper. The kinase activity was detected by the filter binding method.

CaMKK2 = CaMKK2 (Homo sapiens, UniProt Q96RR4); experiment: CaMKK1/2 biochemical assay, 32P radiometric kinase assay (CaMKK2); settings: for inhibition at 10 µM: 10 μM compound, read-out: CaMKK2 % inhibition @ concentrations shown, 10 μM; for inhibition at 0.5 µM: 0.5 μM compound, read-out: CaMKK2 % inhibition @ concentrations shown, 0.5 μM; for inhibition at 0.2 µM: 0.2 μM compound, read-out: CaMKK2 % inhibition @ concentrations shown, 0.2 μM
Protocol: as §1

O=C(O)c1n[nH]c2ccc(N3CCOC3=O)cc12 [CL-628]
Biochemical Data CaMKK1, inh @ 0.5 μM (CaMKK1): <5% inh @ 0.5 μM
Biochemical Data CaMKK2, inh @ 0.5 μM (CaMKK2): 22% inh @ 0.5 μM

CCOC(=O)c1n[nH]c2ccc(N3CCOC3=O)cc12 [CL-629]
Biochemical Data CaMKK1, inh @ 0.5 μM (CaMKK1): <5% inh @ 0.5 μM
Biochemical Data CaMKK2, inh @ 0.5 μM (CaMKK2): 20% inh @ 0.5 μM

O=C1OCCN1c1ccc2[nH]nc(-c3cccc4ccccc34)c2c1 [CL-666]
Biochemical Data CaMKK1, inh @ 0.2 μM (CaMKK1): <5% inh @ 0.2 μM
Biochemical Data CaMKK2, inh @ 0.2 μM (CaMKK2): 15% inh @ 0.2 μM

O=C1OCCN1c1ccc2[nH]nc(-c3ccc4cc[nH]c4c3)c2c1 [CL-669]
Biochemical Data CaMKK1, inh @ 0.2 μM (CaMKK1): <5% inh @ 0.2 μM
Biochemical Data CaMKK2, inh @ 0.2 μM (CaMKK2): 55% inh @ 0.2 μM

O=C1OCCN1c1ccc2[nH]nc(-c3coc4ccccc34)c2c1 [Example 1, 3-(3-(Benzofuran-3-yl)-1H-indazol-5-yl)oxazolidin-2-one]
inhibition at 10 µM (CaMKK2): 72%

O=C1OCCN1c1ccc2[nH]nc(-c3cc4ccccc4o3)c2c1 [Example 2, 3-(3-(Benzofuran-2-yl)-1H-indazol-5-yl)oxazolidin-2-one]
IC50 (CaMKK1): 164 nM
inhibition at 10 µM (CaMKK2): 98%

O=C1OCCN1c1ccc2[nH]nc(-n3ccnc3)c2c1 [Example 5, 3-(3-(1H-imidazol-1-yl)-1H-indazol-5-yl)oxazolidin-2-one]
inhibition at 10 µM (CaMKK2): 29%

O=C1OCCN1c1ccc2[nH]nc(-c3ccccc3)c2c1 [Example 6, 3-(3-phenyl-1H-indazol-5-yl)oxazolidin-2-one]
Biochemical Data CaMKK1, inh @ 0.5 μM (CaMKK1): <5% inh @ 0.5 μM
Biochemical Data CaMKK2, inh @ 0.5 μM (CaMKK2): 37% inh @ 0.5 μM
inhibition at 0.5 µM (CaMKK2): 37%

O=C1OCCN1c1ccc2[nH]nc(-c3cccnc3)c2c1 [Example 7, 3-(3-(pyridin-3-yl)-1H-indazol-5-yl)oxazolidin-2-one]
Biochemical Data CaMKK1, inh @ 0.5 μM (CaMKK1): <5% inh @ 0.5 μM
Biochemical Data CaMKK2, inh @ 0.5 μM (CaMKK2): 29% inh @ 0.5 μM
inhibition at 0.5 µM (CaMKK2): 29%

C=Cc1n[nH]c2ccc(N3CCOC3=O)cc12 [Example 8, 3-(3-vinyl-1H-indazol-5-yl)oxazolidin-2-one]
Biochemical Data CaMKK1, inh @ 0.5 μM (CaMKK1): 12% inh @ 0.5 μM
Biochemical Data CaMKK2, inh @ 0.5 μM (CaMKK2): 26% inh @ 0.5 μM
inhibition at 0.5 µM (CaMKK2): 26%

O=C1OCCN1c1ccc2[nH]nc(/C=C/c3ccccc3)c2c1 [Example 9, (E)-3-(3-styryl-1H-indazol-5-yl)oxazolidin-2-one]
inhibition at 0.5 µM (CaMKK2): 89%

O=C1OCCN1c1ccc2[nH]nc(/C=C/c3cccnc3)c2c1 [Example 10, (E)-3-(3-(2-(pyridin-3-yl)vinyl)-1H-indazol-5-yl)oxazolidin-2-one]
inhibition at 0.5 µM (CaMKK2): 72%

O=C1OCCN1c1ccc2[nH]nc(/C=C/c3ccncc3)c2c1 [Example 11, (E)-3-(3-(2-(pyridin-4-yl)vinyl)-1H-indazol-5-yl)oxazolidin-2-one]
inhibition at 0.5 µM (CaMKK2): 80%

O=C1OCCN1c1ccc2[nH]nc(C#Cc3ccccn3)c2c1 [Example 12, 3-(3-(pyridin-2-ylethynyl)-1H-indazol-5-yl)oxazolidin-2-one]
Biochemical Data CaMKK1, inh @ 0.5 μM (CaMKK1): 14% inh @ 0.5 μM
Biochemical Data CaMKK2, inh @ 0.5 μM (CaMKK2): 52% inh @ 0.5 μM
inhibition at 0.5 µM (CaMKK2): 52%

O=C1OCCN1c1ccc2[nH]nc(-c3ccncc3)c2c1 [Example 13, 3-(3-(pyridin-4-yl)-1H-indazol-5-yl)oxazolidin-2-one]
Biochemical Data CaMKK1, inh @ 0.5 μM (CaMKK1): 7% inh @ 0.5 μM
Biochemical Data CaMKK2, inh @ 0.5 μM (CaMKK2): 33% inh @ 0.5 μM
inhibition at 0.5 µM (CaMKK2): 33%

O=C1OCCN1c1ccc2[nH]nc(-c3cc4cccc(Cl)c4[nH]3)c2c1 [Example 14, 3-(3-(7-chloro-1H-indol-2-yl)-1H-indazol-5-yl)oxazolidin-2-one]
inhibition at 0.2 µM (CaMKK2): 71%

O=C1OCCN1c1ccc2[nH]nc(-c3cc4ccc(Cl)cc4[nH]3)c2c1 [Example 15, 3-(3-(6-chloro-1H-indol-2-yl)-1H-indazol-5-yl)oxazolidin-2-one]
inhibition at 0.2 µM (CaMKK2): 85%

O=C1OCCN1c1ccc2[nH]nc(-c3cc4c(Cl)cccc4[nH]3)c2c1 [Example 17, 3-(3-(4-chloro-1H-indol-2-yl)-1H-indazol-5-yl)oxazolidin-2-one]
inhibition at 0.2 µM (CaMKK2): 71%

COc1cccc2cc(-c3n[nH]c4ccc(N5CCOC5=O)cc34)[nH]c12 [Example 18, 3-(3-(7-methoxy-1H-indol-2-yl)-1H-indazol-5-yl)oxazolidin-2-one]
inhibition at 0.2 µM (CaMKK2): 61%

COc1ccc2cc(-c3n[nH]c4ccc(N5CCOC5=O)cc34)[nH]c2c1 [Example 19, 3-(3-(6-methoxy-1H-indol-2-yl)-1H-indazol-5-yl)oxazolidin-2-one]
inhibition at 0.2 µM (CaMKK2): 87%

COc1ccc2[nH]c(-c3n[nH]c4ccc(N5CCOC5=O)cc34)cc2c1 [Example 20, 3-(3-(5-methoxy-1H-indol-2-yl)-1H-indazol-5-yl)oxazolidin-2-one]
inhibition at 0.2 µM (CaMKK2): 84%

COc1cccc2[nH]c(-c3n[nH]c4ccc(N5CCOC5=O)cc34)cc12 [Example 21, 3-(3-(4-methoxy-1H-indol-2-yl)-1H-indazol-5-yl)oxazolidin-2-one]
inhibition at 0.2 µM (CaMKK2): 84%

O=C1OCCN1c1ccc2[nH]nc(-c3ccc[nH]3)c2c1 [Example 22, 3-(3-(1H-pyrrol-2-yl)-1H-indazol-5-yl)oxazolidin-2-one]
Biochemical Data CaMKK1, inh @ 0.2 μM (CaMKK1): <5% inh @ 0.2 μM
Biochemical Data CaMKK2, inh @ 0.2 μM (CaMKK2): 37% inh @ 0.2 μM
inhibition at 0.2 µM (CaMKK2): 37%

O=C1OCCN1c1ccc2[nH]nc(-c3cccc(Cl)c3)c2c1 [Example 23, 3-(3-(3-chlorophenyl)-1H-indazol-5-yl)oxazolidin-2-one]
Biochemical Data CaMKK1, inh @ 0.2 μM (CaMKK1): <5% inh @ 0.2 μM
Biochemical Data CaMKK2, inh @ 0.2 μM (CaMKK2): 44% inh @ 0.2 μM
inhibition at 0.2 µM (CaMKK2): 44%

O=C1OCCN1c1ccc2[nH]nc(-c3ccc4ccccc4c3)c2c1 [Example 25, 3-(3-(naphthalen-2-yl)-1H-indazol-5-yl)oxazolidin-2-one]
inhibition at 0.2 µM (CaMKK2): 67%

O=C1OCCN1c1ccc2[nH]nc(-c3ccc(-c4ccccc4)cc3)c2c1 [Example 27, 3-(3-([1,1′-biphenyl]-4-yl)-1H-indazol-5-yl)oxazolidin-2-one]
inhibition at 0.2 µM (CaMKK2): 59%

O=C1OCCN1c1ccc2[nH]nc(-c3ccc4cc[nH]c4c3)c2c1 [Example 28, 3-(3-(1H-indol-6-yl)-1H-indazol-5-yl)oxazolidin-2-one]
inhibition at 0.2 µM (CaMKK2): 44%

CN(C)CCNC(=O)c1cccc(/C=C/c2n[nH]c3ccc(N4CCOC4=O)cc23)c1 [Example 29, (E)-N-(2-(dimethylamino)ethyl)-3-(2-(5-(2-oxooxazolidin-3-yl)-1H-indazol-3-yl)vinyl)benzamide]
inhibition at 0.2 µM (CaMKK2): 63%

CN(C)CCNC(=O)c1ccc(/C=C/c2n[nH]c3ccc(N4CCOC4=O)cc23)cc1 [Example 30, (E)-N-(2-(dimethylamino)ethyl)-4-(2-(5-(2-oxooxazolidin-3-yl)-1H-indazol-3-yl)vinyl)benzamide]
inhibition at 0.2 µM (CaMKK2): 75%

O=S1(=O)CCCN1c1ccc2[nH]nc(-c3cc4ccccc4[nH]3)c2c1 [Example 32, 2-(3-(1H-indol-2-yl)-1H-indazol-5-yl)isothiazolidine 1,1-dioxide]
inhibition at 0.2 µM (CaMKK2): 84%

C[C@H]1COC(=O)N1c1ccc2[nH]nc(-c3cc4ccccc4[nH]3)c2c1 [Example 33, (S)-3-(3-(1H-indol-2-yl)-1H-indazol-5-yl)-4-methyloxazolidin-2-one]
inhibition at 0.2 µM (CaMKK2): 90%

C[C@@H]1COC(=O)N1c1ccc2[nH]nc(-c3cc4ccccc4[nH]3)c2c1 [Example 34, (R)-3-(3-(1H-indol-2-yl)-1H-indazol-5-yl)-4-methyloxazolidin-2-one]
inhibition at 0.2 µM (CaMKK2): 73%

O=C1OC[C@H](CO)N1c1ccc2[nH]nc(-c3cc4ccccc4[nH]3)c2c1 [Example 35, (S)-3-(3-(1H-indol-2-yl)-1H-indazol-5-yl)-4-(hydroxymethyl)oxazolidin-2-one]
inhibition at 0.2 µM (CaMKK2): 68%

O=C1OC[C@@H](CO)N1c1ccc2[nH]nc(-c3cc4ccccc4[nH]3)c2c1 [Example 36, (R)-3-(3-(1H-indol-2-yl)-1H-indazol-5-yl)-4-(hydroxymethyl)oxazolidin-2-one]
inhibition at 0.2 µM (CaMKK2): 57%

O=C1OC[C@H](c2ccccc2)N1c1ccc2[nH]nc(-c3cc4ccccc4[nH]3)c2c1 [Example 37, (S)-3-(3-(1H-indol-2-yl)-1H-indazol-5-yl)-4-phenyloxazolidin-2-one]
inhibition at 0.2 µM (CaMKK2): 74%

O=C1OC[C@@H](c2ccccc2)N1c1ccc2[nH]nc(-c3cc4ccccc4[nH]3)c2c1 [Example 38, (R)-3-(3-(1H-indol-2-yl)-1H-indazol-5-yl)-4-phenyloxazolidin-2-one]
inhibition at 0.2 µM (CaMKK2): 50%

CC(C)[C@H]1COC(=O)N1c1ccc2[nH]nc(-c3cc4ccccc4[nH]3)c2c1 [Example 39, (S)-3-(3-(1H-indol-2-yl)-1H-indazol-5-yl)-4-isopropyloxazolidin-2-one]
inhibition at 0.2 µM (CaMKK2): 72%

O=C1CCCN1c1ccc2[nH]nc(-c3cc4ccccc4[nH]3)c2c1 [Example 42, 1-(3-(1H-indol-2-yl)-1H-indazol-5-yl)pyrrolidin-2-one]
inhibition at 0.2 µM (CaMKK2): 56%

COC(=O)[C@@H]1CCC(=O)N1c1ccc2[nH]nc(-c3cc4ccccc4[nH]3)c2c1 [Example 43, methyl (S)-1-(3-(1H-indol-2-yl)-1H-indazol-5-yl)-5-oxopyrrolidine-2-carboxylate]
inhibition at 0.2 µM (CaMKK2): 38%

O=C(O)[C@@H]1CCC(=O)N1c1ccc2[nH]nc(-c3cc4ccccc4[nH]3)c2c1 [Example 44, (S)-1-(3-(1H-indol-2-yl)-1H-indazol-5-yl)-5-oxopyrrolidine-2-carboxylic acid]
inhibition at 0.2 µM (CaMKK2): 78%
